Assay results taken from patent publication US11026945B2, “Protein kinase RNA-like endoplasmic reticulum kinase (PERK) inhibitors for prevention and/or treatment of lung injury and/or inflammation” (THE TRUSTEES OF THE UNIVERSITY OF PENNSYLVANIA, priority 2016, dated 2021).

Legend:
[1] = tested on: AEC-I monolayers; assay: Monolayer permeability, FITC-labeled streptavidin binding to biotin; format: cell-based, rat; conditions: stretched monolayers (25%, 6 hrs), 1 μM PI pretreatment 18 hours
Source text: To obtain monolayer rat type-II alveolar epithelial cells (AEC-II), cells were isolated from Sprague-Dawley rats (250-300 g, N=30 purchased from Charles River Laboratories, Wilmington, Mass.) described by Tschumperlin D J, Margulies SS. Equibiaxial deformation-induced injury of alveolar epithelial cells in vitro. Am J Physiol. 1998; 275(6 Pt 1):L1173-83. Epub 1998/12/09 (PubMed PMID: 9843855), with modifications. Briefly, animals were killed and the lungs were harvested. The lung tissue was digested with elastase at 37° C. and distal airways were isolated. Following, cells were placed on rat IgG coated containing no serum for 90 minutes to eliminate contaminating leukocytes and parenchymal cells. This isolation method yielded approximately 95% pure alveolar epithelial cell population. 1.3 million cells were plated on 1 cm diameter fibronectin-coated custom made silastic membranes. In permeability studies, biotin were mixed with fibronectin and membranes were pretreated with oxygen plasma coating to ensure homogenous distribution of the fibronectin. Cells were cultured with 10% fetal bovine serum (FBS)-containing Minimal Essential Medium (MEM) containing low dose antibiotics for 3 days. 32 to 40 monolayers were per rat. On the 3rd day, matured monolayers were randomized to be exposed to one of the treatments for 24 hours (N=3 monolayers/treatment): • A. RNAiMax transfection reagent treatment using serum free media (Opti-MEM, Thermo Fisher Scientific, Waltham, Mass.). This is a negative control for siRNA experiments where serum free media is used for improved transfection efficiency; • B. non-targeting siRNA treatment ([…], Dharmacon) serves a negative control for transfection; • C. […]
The dose of siRNA and PI treatment was selected based on dose-response curves above (FIG. 2A-FIG. 2E). […] All membranes were treated with FITC-labeled streptavidin (Thermo Fisher Scientific) at the end of the experiment and light emission was detected at 488 nm with fluorescent microscopy (Nikon TE300, Melville, N.Y.). […]

[2] = tested on: integrated stress response (ISR) signaling (p-PERK, p-EIF2α, ATF4, CHOP); assay: Western blot of ISR signaling in stretched AEC-I monolayers; format: cell-based, rat
Source text: To obtain monolayer rat type-II alveolar epithelial cells (AEC-II), cells were isolated from Sprague-Dawley rats (250-300 g, N=30 purchased from Charles River Laboratories, Wilmington, Mass.) described by Tschumperlin D J, Margulies SS. Equibiaxial deformation-induced injury of alveolar epithelial cells in vitro. Am J Physiol. 1998; 275(6 Pt 1):L1173-83. Epub 1998/12/09 (PubMed PMID: 9843855), with modifications. Briefly, animals were killed and the lungs were harvested. The lung tissue was digested with elastase at 37° C. and distal airways were isolated. Following, cells were placed on rat IgG coated containing no serum for 90 minutes to eliminate contaminating leukocytes and parenchymal cells. This isolation method yielded approximately 95% pure alveolar epithelial cell population. 1.3 million cells were plated on 1 cm diameter fibronectin-coated custom made silastic membranes. In permeability studies, biotin were mixed with fibronectin and membranes were pretreated with oxygen plasma coating to ensure homogenous distribution of the fibronectin. Cells were cultured with 10% fetal bovine serum (FBS)-containing Minimal Essential Medium (MEM) containing low dose antibiotics for 3 days. 32 to 40 monolayers were per rat. […] RNAiMax transfection reagent treatment using serum free media (Opti-MEM, Thermo Fisher Scientific, Waltham, Mass.). This is a negative control for siRNA experiments where serum free media is used for improved transfection efficiency; • B. non-targeting siRNA treatment ([…], Dharmacon) serves a negative control for transfection; • C. 0.5 μg siRNA treatment targeting PERK; • D. 0.5 μg siRNA treatment targeting ATF4; • E. 0.5 μg siRNA treatment targeting CHOP; • F. vehicle control (DMSO) for PI; and • G. 1 μM PI treatment.
The dose of siRNA and PI treatment was selected based on dose-response curves above (FIG. 2A-FIG. 2E). AEC-II transformed to AEC-I cells and formed a complete monolayer by day 4, expressing only AEC-I cell surface markers. On the day of the experiment, the medium was removed and replaced with HEPES-buffered MEM. Cells stretch was performed in a 37° C. incubator. The effect of ISR inhibition or control treatment was compared in the following three conditions (N=5 biological replicates/condition): 1) no stretch (NS) controls; 2) mechanical stretch with 12% surface change (S 12%); and 3) mechanical stretch with 25% surface change (S25%). The cell monolayers were exposed to the above mentioned conditions for 6 hours based on time course of ISR protein expression obtained during preliminary data collection (FIG. 2A-FIG. 2E). All membranes were treated with FITC-labeled streptavidin (Thermo Fisher Scientific) at the end of the experiment and light emission was detected at 488 nm with fluorescent microscopy (Nikon TE300, Melville, N.Y.). In a separate set of experiments (N=30 rats), in which the above mentioned treatment plan and conditions were used, cells were harvested at the end of the experiment by scraping them in RIPA buffer and total protein was extracted (N=3 membranes/treatment group performed for N=5 biological replicates per condition). Co-immunoprecipitation (IP) assays were performed using 5 μg of ZO-1 protein as bait (IP kit, Thermo Fisher Scientific). Following co-IP, immunoblotting was performed for ZO-1, OCLN and CLDN proteins 4, 7 and 18 (Invitrogen, Carlsbad, Calif.).
Rats (N=106) were euthanized with an overdose of sodium pentobarbital (55 mg/kg). The chest was shaved and cleaned with Wexcide. Tracheostomy was performed, and a 14 gauge (G) metal cannula was inserted in the trachea lumen. The animals were connected to a rodent ventilator (Harvard Apparatus Model 640, Holliston, Mass.). Subsequently, the chest and abdomen were opened by a midline incision, and the aorta was transected causing exsanguination. […]

[3] = stretched AEC-I monolayers, 1 μM PI, 24 hours pretreatment
[4] = unstretched monolayers, 1 μM PI for 18 hours

In the case of `Cn1cc(-c2ccc3c(c2)CCN3C(=O)Cc2cccc(C(F)(F)F)c2)c2c(N)ncnc21` [PI, 1-[5-(4-Amino-7-methyl-7H-pyrrolo[2,3-d]pyrimidin-5-yl)indolin-1-yl]-2-(3-trifluoromethylphenyl)ethanone], the monolayer permeability [1] is reported as “significantly reduced”, the ATF4 [2, 3] is reported as “decreased” and the CHOP [2, 3] is reported as “decreased”. For the same molecule, the p-EIF2α [2, 3] was “decreased”, the p-PERK [2, 3] was “decreased” and the “Level of ATF4” value [2, 4] was “unaffected”. The “Level of CHOP” value [2, 4] was “unaffected”, the “Level of p-EIF2α” value [2, 4] was “unaffected” and the “Level of p-PERK” value [2, 4] was “unaffected”.
